# Experimental data reported in patent US9212182B2, “Bicyclic sulfonamide compounds as sodium channel inhibitors” (AMGEN INC., priority 2013, dated 2015).
# Target: Nav 1.7 (Homo sapiens (Human), UniProt Q15858)
# Assay: in-vitro Nav 1.7 PX (IC50)
# Assay type: cell-based
# Conditions: not given
# Nav 1.7, sequence (Q15858 whole entry): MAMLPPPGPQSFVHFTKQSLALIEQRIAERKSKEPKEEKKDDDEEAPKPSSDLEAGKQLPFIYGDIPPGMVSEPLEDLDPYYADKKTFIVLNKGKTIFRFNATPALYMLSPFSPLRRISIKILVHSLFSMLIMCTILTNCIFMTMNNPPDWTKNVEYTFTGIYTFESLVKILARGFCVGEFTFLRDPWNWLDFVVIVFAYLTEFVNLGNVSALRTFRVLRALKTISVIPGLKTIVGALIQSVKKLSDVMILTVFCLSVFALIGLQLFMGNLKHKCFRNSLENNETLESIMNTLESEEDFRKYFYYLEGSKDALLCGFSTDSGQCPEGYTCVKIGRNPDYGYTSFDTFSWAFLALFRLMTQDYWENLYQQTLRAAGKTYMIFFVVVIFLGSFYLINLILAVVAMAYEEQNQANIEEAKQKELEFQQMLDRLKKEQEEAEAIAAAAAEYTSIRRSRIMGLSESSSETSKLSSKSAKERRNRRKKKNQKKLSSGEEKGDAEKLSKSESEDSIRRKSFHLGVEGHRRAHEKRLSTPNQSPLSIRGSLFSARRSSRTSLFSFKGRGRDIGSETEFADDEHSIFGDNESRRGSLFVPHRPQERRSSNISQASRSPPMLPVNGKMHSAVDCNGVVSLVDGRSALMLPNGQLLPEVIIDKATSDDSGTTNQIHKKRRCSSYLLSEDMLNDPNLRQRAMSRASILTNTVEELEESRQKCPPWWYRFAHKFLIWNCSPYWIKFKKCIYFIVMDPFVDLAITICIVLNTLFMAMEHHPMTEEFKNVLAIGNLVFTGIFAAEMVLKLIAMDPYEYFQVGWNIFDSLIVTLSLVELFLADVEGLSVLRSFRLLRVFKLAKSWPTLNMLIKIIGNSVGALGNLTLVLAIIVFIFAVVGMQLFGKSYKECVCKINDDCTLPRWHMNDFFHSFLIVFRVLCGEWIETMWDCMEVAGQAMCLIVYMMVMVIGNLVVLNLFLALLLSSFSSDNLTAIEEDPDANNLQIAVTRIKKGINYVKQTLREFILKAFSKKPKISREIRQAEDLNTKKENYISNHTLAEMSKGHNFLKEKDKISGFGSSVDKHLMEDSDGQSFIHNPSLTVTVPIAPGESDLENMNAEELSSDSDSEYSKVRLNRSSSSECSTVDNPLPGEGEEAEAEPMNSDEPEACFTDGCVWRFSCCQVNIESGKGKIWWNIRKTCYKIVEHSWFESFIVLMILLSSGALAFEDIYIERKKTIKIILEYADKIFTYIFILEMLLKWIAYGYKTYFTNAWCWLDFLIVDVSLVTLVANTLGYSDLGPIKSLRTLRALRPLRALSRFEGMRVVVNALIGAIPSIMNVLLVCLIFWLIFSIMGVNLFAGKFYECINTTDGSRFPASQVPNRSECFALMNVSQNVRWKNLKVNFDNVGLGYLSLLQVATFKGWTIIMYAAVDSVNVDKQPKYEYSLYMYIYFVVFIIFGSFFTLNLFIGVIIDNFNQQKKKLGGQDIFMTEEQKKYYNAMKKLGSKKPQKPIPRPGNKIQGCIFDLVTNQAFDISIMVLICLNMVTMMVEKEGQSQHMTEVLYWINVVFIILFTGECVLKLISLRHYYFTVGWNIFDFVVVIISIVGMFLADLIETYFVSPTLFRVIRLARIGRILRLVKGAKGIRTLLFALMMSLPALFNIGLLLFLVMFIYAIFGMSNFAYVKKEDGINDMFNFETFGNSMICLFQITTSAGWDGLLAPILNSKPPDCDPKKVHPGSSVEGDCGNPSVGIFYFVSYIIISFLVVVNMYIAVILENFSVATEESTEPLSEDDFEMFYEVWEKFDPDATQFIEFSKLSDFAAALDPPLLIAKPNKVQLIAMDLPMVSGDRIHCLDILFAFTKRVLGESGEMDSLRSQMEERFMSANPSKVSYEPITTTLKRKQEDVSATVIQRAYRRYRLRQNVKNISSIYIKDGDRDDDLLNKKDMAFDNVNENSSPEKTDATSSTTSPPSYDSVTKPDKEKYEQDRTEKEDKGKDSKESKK
row,IC50 [nM],SMILES
1,106,"COc1cc(-c2ccc(F)cc2)c(F)cc1-n1c(=O)cnc2cc(S(=O)(=O)Nc3ccon3)ccc21 [Example 1141, 1-(2,4′-difluoro-5-methoxy-4-biphenylyl)-N-3-isoxazolyl-2-oxo-1,2-dihydro-6-quinoxalinesulfonamide]"
2,79,"COc1cc(C#CC2CCCC2)c(F)cc1-n1c(=O)cnc2cc(S(=O)(=O)Nc3ccon3)ccc21 [Example 1142, 1-(4-(cyclopentylethynyl)-5-fluoro-2-methoxyphenyl)-N-3-isoxazolyl-2-oxo-1,2-dihydro-6-quinoxalinesulfonamide]"
3,8910,"O=c1ccc2cc(S(=O)(=O)Nc3ccon3)ccc2n1[C@@H]1CC[C@@H](c2cccc(F)c2)C1 [Example 1143, 1-((1R,3R)-3-(3-fluorophenyl)cyclopentyl)-N-3-isoxazolyl-2-oxo-1,2-dihydro-6-quinolinesulfonamide, 1-((1R,3S)-3-(3-fluorophenyl)cyclopentyl)-N-3-isoxazolyl-2-oxo-1,2-dihydro-6-quinolinesulfonamide, 1-((1S,3R)-3-(3-fluorophenyl)cyclopentyl)-N-3-isoxazolyl-2-oxo-1,2-dihydro-6-quinolinesulfonamide, 1-((1S,3S)-3-(3-fluorophenyl)cyclopentyl)-N-3-isoxazolyl-2-oxo-1,2-dihydro-6-quinolinesulfonamide]"

# Same assay, conditions: in-vitro Nav 1.7 PX data
row,SMILES,IC50 [nM]
1,"COc1cc(C[C@@H]2CCOC2)c(F)cc1-n1c(=O)ccc2cc(S(=O)(=O)Nc3ccon3)ccc21 [Example 1123, 1-(5-fluoro-2-methoxy-4-((3R)-tetrahydro-3-furanylmethyl)phenyl)-N-3-isoxazolyl-2-oxo-1,2-dihydro-6-quinolinesulfonamide, 1-(5-fluoro-2-methoxy-4-((3S)-tetrahydro-3-furanylmethyl)phenyl)-N-3-isoxazolyl-2-oxo-1,2-dihydro-6-quinolinesulfonamide]",1600
2,"COc1cc(C#CC2CC2)c(F)cc1-n1c(=O)ccc2cc(S(=O)(=O)Nc3ccon3)ccc21 [Example 1130, 1-(4-(cyclopropylethynyl)-5-fluoro-2-methoxyphenyl)-N-3-isoxazolyl-2-oxo-1,2-dihydro-6-quinolinesulfonamide]",209
3,"COc1cc(C[C@H]2CCCCO2)c(F)cc1-n1c(=O)ccc2cc(S(=O)(=O)Nc3ccon3)ccc21 [Example 1133, 1-(5-fluoro-2-methoxy-4-((2R)-tetrahydro-2H-pyran-2-ylmethyl)phenyl)-N-3-isoxazolyl-2-oxo-1,2-dihydro-6-quinolinesulfonamide, 1-(5-fluoro-2-methoxy-4-((2S)-tetrahydro-2H-pyran-2-ylmethyl)phenyl)-N-3-isoxazolyl-2-oxo-1,2-dihydro-6-quinolinesulfonamide]",2260
4,"COc1cc(C#CC2CCCC2)c(F)cc1-n1c(=O)ccc2cc(S(=O)(=O)Nc3ncc(F)cn3)ccc21 [Example 1135, 1-(4-(cyclopentylethynyl)-5-fluoro-2-methoxyphenyl)-N-(5-fluoro-2-pyrimidinyl)-2-oxo-1,2-dihydro-6-quinolinesulfonamide]",114
5,"COc1cc(C#CC2CCCC2)c(F)cc1-n1c(=O)ccc2cc(S(=O)(=O)Nc3ncco3)ccc21 [Example 1136, 1-(4-(cyclopentylethynyl)-5-fluoro-2-methoxyphenyl)-N-1,3-oxazol-2-yl-2-oxo-1,2-dihydro-6-quinolinesulfonamide]",48
6,"COc1cc(-c2cccc(C(F)(F)F)c2)ccc1-n1c(=O)ccc2cc(S(=O)(=O)Nc3cc(C)cnn3)ccc21 [Example 1137, 1-(3-methoxy-3′-(trifluoromethyl)-4-biphenylyl)-N-(5-methyl-3-pyridazinyl)-2-oxo-1,2-dihydro-6-quinolinesulfonamide]",36
7,"COc1cc(C#CC(C)(C)O)c(F)cc1-n1c(=O)ccc2cc(S(=O)(=O)Nc3ccon3)ccc21 [Example 1139, 1-(5-fluoro-4-(3-hydroxy-3-methyl-1-butyn-1-yl)-2-methoxyphenyl)-N-3-isoxazolyl-2-oxo-1,2-dihydro-6-quinolinesulfonamide]",7380

# Further lines, results first:
row,IC50 [nM],SMILES
1,106,"COc1cc(-c2ccc(C)c(F)c2)c(F)cc1-n1c(=O)ccc2cc(S(=O)(=O)Nc3ccnc(C)n3)ccc21 [Example 1124, 1-(2,3′-difluoro-5-methoxy-4′-methyl-4-biphenylyl)-N-(2-methyl-4-pyrimidinyl)-2-oxo-1,2-dihydro-6-quinolinesulfonamide]"
2,81,"COc1cc(-c2ccc(C)c(F)c2)c(F)cc1-n1c(=O)ccc2cc(S(=O)(=O)Nc3ncco3)ccc21 [Example 1125, 1-(2,3′-difluoro-5-methoxy-4′-methyl-4-biphenylyl)-N-1,3-oxazol-2-yl-2-oxo-1,2-dihydro-6-quinolinesulfonamide]"
3,57,"COc1cc(-c2ccc(C)c(F)c2)c(F)cc1-n1c(=O)ccc2cc(S(=O)(=O)Nc3ncccn3)ccc21 [Example 1126, 1-(2,3′-difluoro-5-methoxy-4′-methyl-4-biphenylyl)-2-oxo-N-2-pyrimidinyl-1,2-dihydro-6-quinolinesulfonamide]"
4,34,"COc1cc(-c2ccc(C)c(F)c2)c(F)cc1-n1c(=O)ccc2cc(S(=O)(=O)Nc3ncc(F)cn3)ccc21 [Example 1127, 1-(2,3′-difluoro-5-methoxy-4′-methyl-4-biphenylyl)-N-(5-fluoro-2-pyrimidinyl)-2-oxo-1,2-dihydro-6-quinolinesulfonamide]"
5,36,"COc1cc(-c2ccc(C)c(F)c2)c(F)cc1-n1c(=O)ccc2cc(S(=O)(=O)Nc3cccnn3)ccc21 [Example 1128, 1-(2,3′-difluoro-5-methoxy-4′-methyl-4-biphenylyl)-2-oxo-N-3-pyridazinyl-1,2-dihydro-6-quinolinesulfonamide]"
6,80,"COc1cc(-c2ccc(C)c(F)c2)c(F)cc1-n1c(=O)ccc2cc(S(=O)(=O)Nc3cc(C)ncn3)ccc21 [Example 1129, 1-(2,3′-difluoro-5-methoxy-4′-methyl-4-biphenylyl)-N-(6-methyl-4-pyrimidinyl)-2-oxo-1,2-dihydro-6-quinolinesulfonamide]"
7,155,"COc1cc(-c2cccc(C)c2)ccc1-n1c(=O)ccc2cc(S(=O)(=O)Nc3cc(C)ncn3)ccc21 [Example 1131, 1-(3-methoxy-3′-methyl-4-biphenylyl)-N-(6-methyl-4-pyrimidinyl)-2-oxo-1,2-dihydro-6-quinolinesulfonamide]"
8,192,"COc1cc(-c2cccc(C)c2)ccc1-n1c(=O)ccc2cc(S(=O)(=O)Nc3ccnc(C)n3)ccc21 [Example 1132, 1-(3-methoxy-3′-methyl-4-biphenylyl)-N-(2-methyl-4-pyrimidinyl)-2-oxo-1,2-dihydro-6-quinolinesulfonamide]"
9,26,"COc1cc(C#CC2CCCC2)c(F)cc1-n1c(=O)ccc2cc(S(=O)(=O)Nc3ncccn3)ccc21 [Example 1134, 1-(4-(cyclopentylethynyl)-5-fluoro-2-methoxyphenyl)-2-oxo-N-2-pyrimidinyl-1,2-dihydro-6-quinolinesulfonamide]"
10,146,"COc1cc(-c2cccc(C(F)(F)F)c2)ccc1-n1c(=O)ccc2cc(S(=O)(=O)Nc3ccc(C)nn3)ccc21 [Example 1138, 1-(3-methoxy-3′-(trifluoromethyl)-4-biphenylyl)-N-(6-methyl-3-pyridazinyl)-2-oxo-1,2-dihydro-6-quinolinesulfonamide]"
